Measurements reported in patent US20190225650A1, “PEPTIDOMIMETIC MACROCYCLES AND USE THEREOF IN REGULATING HIF1ALPHA” (AILERON THERAPEUTICS, INC., priority 2013, published 2019).
Bridge positions count the residues as written; N and C are the ends. Square brackets hold non-standard residues; d marks the D form. Peptide text beside a SMILES is read from it. Ala(3-Me-diazirin-3-yl) = CC1(C[C@H](N)C(=O)O)N=N1; R8 = C=CCCCCCC[C@@](C)(N)C(=O)O; S5 = C=CCCC[C@](C)(N)C(=O)O; Nle = CCCC[C@H](N)C(=O)O

What was measured:
[1] = target: T1, flag-tagged HIF1α (AA 786-826) / His6-tagged p300 (AA 323-423) complex (Homo sapiens, UniProt Q09472); assay: HIF1α p300 displacement assay (TR FRET, +CHAPS); format: binding; settings: read-out: IC50 (nM) (HIF1α_p300 Displacement + CHAPS)
T1 construct: His6-tagged p300 (AA 323-423); made in house; host or cells: E. coli (pETDuet vector)
Procedure, shortened: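 In this TR-FRET displacement format, peptides compete HIF1α C-terminal transactivation domain off p300-CH. They were preincubated 1 h at room temperature with 300 nM complex in HEPES pH 7.4/NaCl buffer with 7.5 mM CHAPS and 1 mM DTT. Anti-His-D2 (4 nM) and anti-Flag-K (0.5 μM) followed for 2 h, and a one-site fit of the fluorescence ratio gave IC50.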

HRE-bla ME-180 cells = assay: Reporter gene assay (HRE-bla ME-180 HIF reporter, GeneBLAzer); format: cell-based, human; settings: for EC50: 24 hour normoxia
Procedure, shortened: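 A FRET β-lactamase readout of HIF transcription was used. After compound treatment in 0.3% DMSO/media under normoxic conditions, 20 μl of 6× LiveBLAzer-FRET B/G (CCF4-AM) substrate was added. Plates sat 3 hr at room temperature in the dark and were read at 409 Ex/460Em and 409Ex/530Em on a Synergy 2. Inhibition was compared against DMSO vehicle controls, with chetomin as positive control.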

IC50 [1]	EC50 (HRE-bla ME-180 cells)	Compound	18 h Avg % max inhibition at top conc (HIF Rptr-24 hrs normoxia) (μM) (HRE-bla ME-180 cells)
≤ 200 nM	> 30 µM	CCCC[C@H](NC(=O)[C@H](CCC(=O)O)NC(=O)[C@@H](NC(=O)[C@@H](NC(=O)[C@H](CC(C)C)NC(=O)[C@]1(C)CCCC=CCCC[C@](C)(NC(=O)[C@H](CCC(=O)O)NC(=O)[C@H](CC(=O)O)NC(=O)[C@@H](NC(=O)[C@H](Cc2ccccc2)NC(C)=O)[C@@H](C)CC)C(=O)N[C@@H](C(C)C)C(=O)N[C@@H](CC(C)C)C(=O)N[C@@H](CCCC)C(=O)N1)C(C)C)[C@@H](C)CC)C(=O)NCC(=O)N[C@@H](CC(C)C)C(=O)N[C@@H](CC(=O)O)C(=O)N[C@@H](CCCNC(=N)N)C(=O)N[C@H](C(=O)N[C@@H](CCCCN)C(=O)N[C@@H](CCC(=O)O)C(=O)N[C@@H](CC(C)C)C(=O)N1CCC[C@H]1C(=O)N[C@@H](CCC(=O)O)C(=O)N[C@@H](CC(C)C)C(=O)N[C@@H](Cc1c[nH]c2ccccc12)C(=O)N[C@@H](CC(C)C)C(N)=O)[C@@H](C)CC [SP-105] (Ac-FIDE[S5]VL[Nle][S5]LVIE[Nle]GLDRIKELPELWL-NH2; staple 5-9)	–
≤ 200 nM	> 30 µM	CC[C@H](C)[C@H](NC(=O)[C@H](Cc1ccccc1)NC(C)=O)C(=O)N[C@@H](CC(=O)O)C(=O)N[C@@H](CCC(=O)O)C(=O)N[C@@]1(C)CCCC=CCCC[C@@](C)(C(=O)N[C@@H](CC(C)C)C(=O)N[C@H](C(=O)N[C@H](C(=O)N[C@@H](CCC(=O)O)C(=O)N[C@@H](CCSC)C(=O)N[C@@H](C)C(=O)N[C@@H](CC(C)C)C(=O)N[C@@H](CC(=O)O)C(=O)N[C@@H](CCCNC(=N)N)C(=O)N[C@H](C(=O)N[C@@H](CCCCN)C(=O)N[C@@H](CCC(=O)O)C(=O)N[C@@H](CC(C)C)C(=O)N2CCC[C@H]2C(=O)N[C@@H](CCC(=O)O)C(=O)N[C@@H](CC(C)C)C(=O)N[C@@H](Cc2c[nH]c3ccccc23)C(=O)N[C@@H](CC(C)C)C(N)=O)[C@@H](C)CC)[C@@H](C)CC)C(C)C)NC(=O)[C@H](CCSC)NC(=O)[C@H](CC(C)C)NC(=O)[C@H](C(C)C)NC1=O [SP-107] (Ac-FIDE[S5]VLM[S5]LVIEMALDRIKELPELWL-NH2; staple 5-9)	–
≤ 200 nM	> 30 µM	CCCC[C@H](NC(=O)[C@H](CCC(=O)O)NC(=O)[C@@H](NC(=O)[C@@H](NC(=O)[C@H](CC(C)C)NC(=O)[C@]1(C)CCCC=CCCC[C@](C)(NC(=O)[C@H](CCC(=O)O)NC(=O)[C@H](C)NC(=O)[C@@H](NC(=O)[C@H](Cc2ccccc2)NC(C)=O)[C@@H](C)CC)C(=O)N[C@@H](C(C)C)C(=O)N[C@@H](CC(C)C)C(=O)N[C@@H](CCCC)C(=O)N1)C(C)C)[C@@H](C)CC)C(=O)N[C@@H](C)C(=O)N[C@@H](CC(C)C)C(=O)N[C@@H](CC(=O)O)C(=O)N[C@@H](C)C(=O)N[C@H](C(N)=O)[C@@H](C)CC [SP-120] (Ac-FIAE[S5]VL[Nle][S5]LVIE[Nle]ALDAI-NH2; staple 5-9)	+ (<10: +)
400 to 700 nM	> 30 µM	CCCC[C@H](NC(=O)[C@H](C)NC(=O)[C@@H](NC(=O)[C@@H](NC(=O)[C@H](CC(C)C)NC(=O)[C@]1(C)CCCC=CCCC[C@](C)(NC(=O)[C@H](CCC(=O)O)NC(=O)[C@H](C)NC(=O)[C@@H](NC(=O)[C@H](Cc2ccccc2)NC(C)=O)[C@@H](C)CC)C(=O)N[C@@H](C(C)C)C(=O)N[C@@H](CC(C)C)C(=O)N[C@@H](CCCC)C(=O)N1)C(C)C)[C@@H](C)CC)C(=O)N[C@@H](C)C(=O)N[C@@H](CC(C)C)C(=O)N[C@@H](CC(=O)O)C(=O)N[C@@H](C)C(=O)N[C@H](C(N)=O)[C@@H](C)CC [SP-121] (Ac-FIAE[S5]VL[Nle][S5]LVIA[Nle]ALDAI-NH2; staple 5-9)	–
200 to 400 nM	> 30 µM	CCCC[C@H](NC(=O)[C@H](C)NC(=O)[C@@H](NC(=O)[C@@H](NC(=O)[C@H](CC(C)C)NC(=O)[C@]1(C)CCCC=CCCC[C@](C)(NC(=O)[C@H](CCC(=O)O)NC(=O)[C@H](CC(=O)O)NC(=O)[C@@H](NC(=O)[C@H](Cc2ccccc2)NC(C)=O)[C@@H](C)CC)C(=O)N[C@@H](C(C)C)C(=O)N[C@@H](CC(C)C)C(=O)N[C@@H](CCCC)C(=O)N1)C(C)C)[C@@H](C)CC)C(=O)N[C@@H](C)C(=O)N[C@@H](CC(C)C)C(N)=O [SP-122] (Ac-FIDE[S5]VL[Nle][S5]LVIA[Nle]AL-NH2; staple 5-9)	++ (≤10 but <25: ++)
200 to 400 nM	> 30 µM	CCCC[C@H](NC(=O)[C@H](CCCNC(=N)N)NC(=O)[C@H](CC(=O)O)NC(=O)[C@H](CC(C)C)NC(=O)[C@H](C)NC(=O)[C@H](CCCC)NC(=O)[C@H](C)NC(=O)[C@@H](NC(=O)[C@@H](NC(=O)[C@H](CC(C)C)NC(=O)[C@]1(C)CCCC=CCCC[C@](C)(NC(=O)[C@H](CCC(=O)O)NC(=O)[C@H](CC(=O)O)NC(=O)[C@@H](NC(=O)[C@H](Cc2ccccc2)NC(C)=O)[C@@H](C)CC)C(=O)N[C@@H](C(C)C)C(=O)N[C@@H](CC(C)C)C(=O)N[C@@H](CCCC)C(=O)N1)C(C)C)[C@@H](C)CC)C(N)=O [SP-125] (Ac-FIDE[S5]VL[Nle][S5]LVIA[Nle]ALDR[Nle]-NH2; staple 5-9)	+ (<10: +)
200 to 400 nM	15 to 30 µM	CCCC[C@H](NC(=O)[C@H](C)NC(=O)[C@H](C)NC(=O)[C@H](CCCC)NC(=O)[C@H](C)NC(=O)[C@H](CCCC)NC(=O)[C@H](CC(C)C)NC(=O)[C@@H](NC(=O)[C@@H](NC(=O)[C@H](CC(C)C)NC(=O)[C@]1(C)CCCC=CCCC[C@](C)(NC(=O)[C@H](CCC(=O)O)NC(=O)[C@H](CC(=O)O)NC(=O)[C@@H](NC(=O)[C@H](Cc2ccccc2)NC(C)=O)[C@@H](C)CC)C(=O)N[C@@H](C(C)C)C(=O)N[C@@H](CC(C)C)C(=O)N[C@@H](CCCC)C(=O)N1)C(C)C)[C@@H](C)CC)C(N)=O [SP-126] (Ac-FIDE[S5]VL[Nle][S5]LVIL[Nle]A[Nle]AA[Nle]-NH2; staple 5-9)	++++ (≥50: ++++)
400 to 700 nM	≤ 5 µM	CCCC[C@H](NC(=O)[C@H](CCC(=O)O)NC(=O)[C@@H](NC(=O)[C@@H](NC(=O)[C@H](CC(N)=O)NC(=O)[C@]1(C)CCCC=CCCC[C@](C)(NC(=O)[C@H](C)NC(=O)[C@H](CC(=O)O)NC(=O)[C@@H](NC(=O)[C@H](Cc2ccccc2)NC(C)=O)[C@@H](C)CC)C(=O)N[C@@H]([C@@H](C)O)C(=O)N[C@@H](CC(C)C)C(=O)N[C@@H](CCCC)C(=O)N1)C(C)C)[C@@H](C)CC)C(=O)N[C@@H](C)C(=O)N[C@@H](CC(C)C)C(N)=O [SP-151] (Ac-FIDA[S5]TL[Nle][S5]NVIE[Nle]AL-NH2; staple 5-9)	++++ (≥50: ++++)
> 700 nM	> 30 µM	CCCC[C@H](NC(=O)[C@H](CCCNC(=N)N)NC(=O)[C@@H](NC(=O)[C@@H](NC(=O)[C@H](CC(C)C)NC(=O)[C@]1(C)CCCC=CCCC[C@](C)(NC(=O)[C@H](CCC(=O)O)NC(=O)[C@H](CC(=O)O)NC(=O)[C@@H](NC(=O)[C@H](Cc2ccccc2)NC(C)=O)[C@@H](C)CC)C(=O)N[C@@H](C(C)C)C(=O)N[C@@H](CC(C)C)C(=O)N[C@@H](CCCC)C(=O)N1)C(C)C)[C@@H](C)CC)C(=O)N[C@@H](C)C(=O)N[C@@H](CC(C)C)C(N)=O [SP-157] (Ac-FIDE[S5]VL[Nle][S5]LVIR[Nle]AL-NH2; staple 5-9)	+ (<10: +)
400 to 700 nM	> 30 µM	CCCC[C@H](NC(=O)[C@H](C)NC(=O)[C@]1(C)CCCC=CCCCCCC[C@@](C)(NC(=O)[C@H](CCC(=O)O)NC(=O)[C@H](C)NC(=O)[C@@H](NC(=O)[C@H](Cc2ccccc2)NC(C)=O)[C@@H](C)CC)C(=O)N[C@@H](C(C)C)C(=O)N[C@@H](CC(C)C)C(=O)N[C@@H](CCCC)C(=O)N[C@@H](CO)C(=O)N[C@@H](CC(C)C)C(=O)N[C@@H](C(C)C)C(=O)N1)C(=O)N[C@@H](C)C(=O)N[C@@H](CC(C)C)C(=O)N[C@@H](CC(=O)O)C(=O)N[C@@H](C)C(=O)N[C@H](C(N)=O)[C@@H](C)CC [SP-193] (Ac-FIAE[R8]VL[Nle]SLV[S5]A[Nle]ALDAI-NH2; staple 5-12)	+ (<10: +)
> 700 nM	> 30 µM	CCCC[C@@H]1NC(=O)[C@H](CC(C)C)NC(=O)[C@H](CCCNC(=N)N)NC(=O)[C@@](C)(NC(=O)[C@H](CCC(=O)O)NC(=O)[C@H](CC(=O)O)NC(=O)[C@@H](NC(=O)[C@H](Cc2ccccc2)NC(C)=O)[C@@H](C)CC)CCCC=CCCCC2(CCCC=CCCC[C@](C)(C(=O)N[C@@H](CCCC)C(=O)N[C@@H](C)C(=O)N[C@@H](CC(C)C)C(N)=O)NC(=O)[C@H]([C@@H](C)CC)NC(=O)[C@H](C(C)C)NC(=O)[C@H](CC(C)C)NC2=O)NC1=O (stereo partly shown) [SP-206]	+ (<10: +)
> 700 nM	> 30 µM	CCCC[C@@H]1NC(=O)[C@H](CC(C)C)NC(=O)[C@H](C(C)C)NC(=O)[C@@](C)(NC(=O)[C@H](CCC(=O)O)NC(=O)[C@H](CC(=O)O)NC(=O)[C@@H](NC(=O)[C@H](Cc2ccccc2)NC(C)=O)[C@@H](C)CC)CCCC=CCCCC2(CCCC=CCCC[C@](C)(C(=O)N[C@@H](CCCC)C(=O)N[C@@H](C)C(=O)N[C@@H](CC(C)C)C(N)=O)NC(=O)[C@H]([C@@H](C)CC)NC(=O)[C@H](C(C)C)NC(=O)[C@H](CCCNC(=N)N)NC2=O)NC1=O (stereo partly shown) [SP-209]	++ (≤10 but <25: ++)
400 to 700 nM	–	SP-72 (Ac-FIDEEVL[Nle][S5]L[Ala(3-Me-diazirin-3-yl)]I[S5][Nle]ALDRI-NH2; staple 9-13)	–
